Test results reported in PubChem BioAssay (NCI).
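Five concentrations, 48 hours, 96-well plates. GI50 = concentration required for 50% inhibition of growth. At the TGI there is no net growth.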

Tests used:
Test in all cases: NCI tumour cell line growth inhibition, 48 h
786-0 renal = test system: 786-0 renal
A498 renal = test system: A498 renal
A549 NSCLC = test system: A549 NSCLC
ACHN renal = test system: ACHN renal
BT-549 breast = test system: BT-549 breast
CAKI-1 renal = test system: CAKI-1 renal
CCRF-CEM leukemia = test system: CCRF-CEM leukemia
COLO 205 colon = test system: COLO 205 colon
DU-145 prostate = test system: DU-145 prostate
EKVX NSCLC = test system: EKVX NSCLC
HCC-2998 colon = test system: HCC-2998 colon
HCT-116 colon = test system: HCT-116 colon
HCT-15 colon = test system: HCT-15 colon
HL-60(TB) leukemia = test system: HL-60(TB) leukemia
HOP-62 NSCLC = test system: HOP-62 NSCLC
HOP-92 NSCLC = test system: HOP-92 NSCLC
HS 578T breast = test system: HS 578T breast
HT29 colon = test system: HT29 colon
IGROV1 ovarian = test system: IGROV1 ovarian
K-562 leukemia = test system: K-562 leukemia
KM12 colon = test system: KM12 colon
LOX IMVI melanoma = test system: LOX IMVI melanoma
M14 melanoma = test system: M14 melanoma
MALME-3M melanoma = test system: MALME-3M melanoma
MCF7 breast = test system: MCF7 breast
MDA-MB-231 breast = test system: MDA-MB-231 breast
MDA-MB-435 = test system: MDA-MB-435
MOLT-4 leukemia = test system: MOLT-4 leukemia
NCI-H226 lung = test system: NCI-H226 lung
NCI-H23 lung = test system: NCI-H23 lung
NCI-H460 lung = test system: NCI-H460 lung
NCI-H522 lung = test system: NCI-H522 lung
NCI/ADR-RES ovarian = test system: NCI/ADR-RES ovarian
OVCAR-3 ovarian = test system: OVCAR-3 ovarian
OVCAR-4 ovarian = test system: OVCAR-4 ovarian
OVCAR-5 ovarian = test system: OVCAR-5 ovarian
OVCAR-8 ovarian = test system: OVCAR-8 ovarian
PC-3 prostate = test system: PC-3 prostate
RPMI-8226 leukemia = test system: RPMI-8226 leukemia
RXF 393 renal = test system: RXF 393 renal
SF-268 CNS = test system: SF-268 CNS
SF-295 CNS = test system: SF-295 CNS
SF-539 CNS = test system: SF-539 CNS
SK-MEL-2 melanoma = test system: SK-MEL-2 melanoma
SK-MEL-28 melanoma = test system: SK-MEL-28 melanoma
SK-MEL-5 melanoma = test system: SK-MEL-5 melanoma
SK-OV-3 ovarian = test system: SK-OV-3 ovarian
SN12C renal = test system: SN12C renal
SNB-19 CNS = test system: SNB-19 CNS
SW-620 colon = test system: SW-620 colon
T-47D breast = test system: T-47D breast
TK-10 renal = test system: TK-10 renal
U251 CNS = test system: U251 CNS
UACC-257 melanoma = test system: UACC-257 melanoma
UACC-62 melanoma = test system: UACC-62 melanoma
UO-31 renal = test system: UO-31 renal

**Q.** Which GI50 (786-0 renal) does the source give for `COc1cc2c(cc1OC)-c1c(c3ccc([N+](=O)[O-])cc3c(=O)n1CCCBr)C2=O` here?
**A.** 2.93 µM

**Q.** And the TGI (786-0 renal)?
**A.** > 100 µM

**Q.** And the GI50 (A498 renal)?
**A.** 43.6 µM

**Q.** And the TGI (A498 renal)?
**A.** > 100 µM

**Q.** What about the GI50 (A549 NSCLC) of the same compound?
**A.** 28.9 µM

**Q.** And the TGI (A549 NSCLC)?
**A.** > 100 µM

**Q.** What about the GI50 (ACHN renal) of the same compound?
**A.** 1.18 µM

**Q.** What about the TGI (ACHN renal) of the same compound?
**A.** 36.8 µM

**Q.** What about the GI50 (BT-549 breast) of the same compound?
**A.** > 100 µM

**Q.** What about the TGI (BT-549 breast) of the same compound?
**A.** > 100 µM

**Q.** What about the GI50 (CAKI-1 renal) of the same compound?
**A.** 0.513 µM

**Q.** What about the TGI (CAKI-1 renal) of the same compound?
**A.** > 100 µM

**Q.** And the GI50 (CCRF-CEM leukemia)?
**A.** 0.425 µM

**Q.** And the TGI (CCRF-CEM leukemia)?
**A.** 67.7 µM

**Q.** And the GI50 (COLO 205 colon)?
**A.** > 100 µM

**Q.** What about the TGI (COLO 205 colon) of the same compound?
**A.** > 100 µM

**Q.** What about the GI50 (DU-145 prostate) of the same compound?
**A.** 24.5 µM

**Q.** What about the TGI (DU-145 prostate) of the same compound?
**A.** > 100 µM

**Q.** And the GI50 (EKVX NSCLC)?
**A.** > 100 µM

**Q.** What about the TGI (EKVX NSCLC) of the same compound?
**A.** > 100 µM

**Q.** And the GI50 (HCC-2998 colon)?
**A.** 59.7 µM

**Q.** And the TGI (HCC-2998 colon)?
**A.** > 100 µM

**Q.** And the GI50 (HCT-116 colon)?
**A.** 4.31 µM

**Q.** What about the TGI (HCT-116 colon) of the same compound?
**A.** > 100 µM

**Q.** What about the GI50 (HCT-15 colon) of the same compound?
**A.** 61.8 µM

**Q.** What about the TGI (HCT-15 colon) of the same compound?
**A.** > 100 µM

**Q.** And the GI50 (HL-60(TB) leukemia)?
**A.** 1.31 µM

**Q.** And the TGI (HL-60(TB) leukemia)?
**A.** 10.2 µM

**Q.** What about the GI50 (HOP-62 NSCLC) of the same compound?
**A.** 20.7 µM

**Q.** What about the TGI (HOP-62 NSCLC) of the same compound?
**A.** > 100 µM

**Q.** What about the GI50 (HOP-92 NSCLC) of the same compound?
**A.** > 100 µM

**Q.** What about the TGI (HOP-92 NSCLC) of the same compound?
**A.** > 100 µM

**Q.** What about the GI50 (HS 578T breast) of the same compound?
**A.** > 100 µM

**Q.** And the TGI (HS 578T breast)?
**A.** > 100 µM

**Q.** What about the GI50 (HT29 colon) of the same compound?
**A.** 61.9 µM

**Q.** What about the TGI (HT29 colon) of the same compound?
**A.** > 100 µM

**Q.** And the GI50 (IGROV1 ovarian)?
**A.** 51.8 µM

**Q.** What about the TGI (IGROV1 ovarian) of the same compound?
**A.** > 100 µM

**Q.** What about the GI50 (K-562 leukemia) of the same compound?
**A.** 5.2 µM

**Q.** And the TGI (K-562 leukemia)?
**A.** > 100 µM

**Q.** What about the GI50 (KM12 colon) of the same compound?
**A.** 29.8 µM

**Q.** And the TGI (KM12 colon)?
**A.** > 100 µM

**Q.** What about the GI50 (LOX IMVI melanoma) of the same compound?
**A.** 3.9 µM

**Q.** What about the TGI (LOX IMVI melanoma) of the same compound?
**A.** 42.4 µM

**Q.** And the GI50 (M14 melanoma)?
**A.** 2.39 µM

**Q.** And the TGI (M14 melanoma)?
**A.** 26.7 µM

**Q.** And the GI50 (MALME-3M melanoma)?
**A.** 9.72 µM

**Q.** And the TGI (MALME-3M melanoma)?
**A.** 81.1 µM

**Q.** And the GI50 (MCF7 breast)?
**A.** 0.0985 µM

**Q.** And the TGI (MCF7 breast)?
**A.** > 100 µM

**Q.** And the GI50 (MDA-MB-231 breast)?
**A.** 96.4 µM

**Q.** What about the TGI (MDA-MB-231 breast) of the same compound?
**A.** > 100 µM

**Q.** And the GI50 (MDA-MB-435)?
**A.** 25.4 µM

**Q.** And the TGI (MDA-MB-435)?
**A.** > 100 µM

**Q.** And the GI50 (MOLT-4 leukemia)?
**A.** 0.461 µM

**Q.** And the TGI (MOLT-4 leukemia)?
**A.** > 100 µM

**Q.** And the GI50 (NCI-H226 lung)?
**A.** 22.7 µM

**Q.** And the TGI (NCI-H226 lung)?
**A.** 85.1 µM

**Q.** What about the GI50 (NCI-H23 lung) of the same compound?
**A.** 3.32 µM

**Q.** What about the TGI (NCI-H23 lung) of the same compound?
**A.** 67.5 µM

**Q.** And the GI50 (NCI-H460 lung)?
**A.** 0.573 µM

**Q.** What about the TGI (NCI-H460 lung) of the same compound?
**A.** > 100 µM

**Q.** And the GI50 (NCI-H522 lung)?
**A.** 6.41 µM

**Q.** What about the TGI (NCI-H522 lung) of the same compound?
**A.** > 100 µM

**Q.** What about the GI50 (NCI/ADR-RES ovarian) of the same compound?
**A.** 5.91 µM

**Q.** And the TGI (NCI/ADR-RES ovarian)?
**A.** > 100 µM

**Q.** What about the GI50 (OVCAR-3 ovarian) of the same compound?
**A.** 71.1 µM

**Q.** And the TGI (OVCAR-3 ovarian)?
**A.** > 100 µM

**Q.** And the GI50 (OVCAR-4 ovarian)?
**A.** 34.1 µM

**Q.** What about the TGI (OVCAR-4 ovarian) of the same compound?
**A.** > 100 µM

**Q.** What about the GI50 (OVCAR-5 ovarian) of the same compound?
**A.** > 100 µM

**Q.** And the TGI (OVCAR-5 ovarian)?
**A.** > 100 µM

**Q.** What about the GI50 (OVCAR-8 ovarian) of the same compound?
**A.** 38.5 µM

**Q.** And the TGI (OVCAR-8 ovarian)?
**A.** > 100 µM

**Q.** What about the GI50 (PC-3 prostate) of the same compound?
**A.** 59 µM

**Q.** And the TGI (PC-3 prostate)?
**A.** > 100 µM

**Q.** What about the GI50 (RPMI-8226 leukemia) of the same compound?
**A.** 3.33 µM

**Q.** What about the TGI (RPMI-8226 leukemia) of the same compound?
**A.** > 100 µM

**Q.** And the GI50 (RXF 393 renal)?
**A.** 44.3 µM

**Q.** What about the TGI (RXF 393 renal) of the same compound?
**A.** > 100 µM

**Q.** What about the GI50 (SF-268 CNS) of the same compound?
**A.** 29 µM

**Q.** And the TGI (SF-268 CNS)?
**A.** > 100 µM

**Q.** And the GI50 (SF-295 CNS)?
**A.** 9.07 µM

**Q.** And the TGI (SF-295 CNS)?
**A.** > 100 µM

**Q.** And the GI50 (SF-539 CNS)?
**A.** 10.4 µM

**Q.** And the TGI (SF-539 CNS)?
**A.** > 100 µM

**Q.** What about the GI50 (SK-MEL-2 melanoma) of the same compound?
**A.** > 100 µM

**Q.** What about the TGI (SK-MEL-2 melanoma) of the same compound?
**A.** > 100 µM

**Q.** And the GI50 (SK-MEL-28 melanoma)?
**A.** > 100 µM

**Q.** What about the TGI (SK-MEL-28 melanoma) of the same compound?
**A.** > 100 µM

**Q.** And the GI50 (SK-MEL-5 melanoma)?
**A.** 1.72 µM

**Q.** And the TGI (SK-MEL-5 melanoma)?
**A.** 23.7 µM

**Q.** What about the GI50 (SK-OV-3 ovarian) of the same compound?
**A.** 60.5 µM

**Q.** And the TGI (SK-OV-3 ovarian)?
**A.** > 100 µM

**Q.** What about the GI50 (SN12C renal) of the same compound?
**A.** 4.31 µM

**Q.** What about the TGI (SN12C renal) of the same compound?
**A.** > 100 µM

**Q.** And the GI50 (SNB-19 CNS)?
**A.** 33.3 µM

**Q.** And the TGI (SNB-19 CNS)?
**A.** > 100 µM

**Q.** And the GI50 (SW-620 colon)?
**A.** 21.8 µM

**Q.** What about the TGI (SW-620 colon) of the same compound?
**A.** > 100 µM

**Q.** And the GI50 (T-47D breast)?
**A.** 0.731 µM

**Q.** What about the TGI (T-47D breast) of the same compound?
**A.** > 100 µM

**Q.** What about the GI50 (TK-10 renal) of the same compound?
**A.** > 100 µM

**Q.** What about the TGI (TK-10 renal) of the same compound?
**A.** > 100 µM

**Q.** What about the GI50 (U251 CNS) of the same compound?
**A.** 5.14 µM

**Q.** What about the TGI (U251 CNS) of the same compound?
**A.** > 100 µM

**Q.** What about the GI50 (UACC-257 melanoma) of the same compound?
**A.** 37.2 µM

**Q.** And the TGI (UACC-257 melanoma)?
**A.** > 100 µM

**Q.** What about the GI50 (UACC-62 melanoma) of the same compound?
**A.** 2.83 µM

**Q.** What about the TGI (UACC-62 melanoma) of the same compound?
**A.** 75.4 µM

**Q.** And the GI50 (UO-31 renal)?
**A.** 5.23 µM

**Q.** And the TGI (UO-31 renal)?
**A.** > 100 µM
